The values that follow are results of earlier work, collected in patent US11123091B2, “Device and methods for treating paranasal sinus conditions” (Intersect ENT, Inc., priority 2005, dated 2021).

The data set relates to cultured human airway epithelial cells. The note with it: for drug concentration at which dose response curves begin: beginning as low as; for EC50: read-out: EC50 levels of transcriptional response.

Consider `CCC(=O)O[C@]1(C(=O)SCF)[C@H](C)C[C@H]2[C@@H]3C[C@H](F)C4=CC(=O)C=C[C@]4(C)[C@@]3(F)[C@@H](O)C[C@@]21C` [fluticasone propionate], for which the “drug concentration at which dose response curves begin” value is listed as 10^−12 M and the EC50 (commonly the concentration at which the effect is half-maximal) was 0.1 nM.
As to `C[C@@H]1C[C@H]2[C@@H]3CCC4=CC(=O)C=C[C@]4(C)[C@@]3(Cl)[C@@H](O)C[C@]2(C)[C@@]1(OC(=O)c1ccco1)C(=O)CCl` [mometasone furoate], the “drug concentration at which dose response curves begin” value is given as 10^−12 M and the EC50 was 0.1 nM.
